The source of these data is US20220362396A1, “AMINO-PYRAZINECARBOXAMIDE COMPOUNDS, CONJUGATES, AND USES THEREOF” (Silverback Therapeutics, Inc., priority 2018, published 2022).

In one test the target is T1, TGFBR2 (Homo sapiens, UniProt P37173).
T1 construct: purchased Reaction Biology Corp
Nature of the test: TGFBR2 RBC assay (enzyme inhibition assay, Reaction Biology Corp.). The format is biochemical. On the procedure: Compounds of the disclosure were also assayed by Reaction Biology Corp. using the TGFBR2 RBC assay (enzyme inhibition assay). […] NT refers to not tested.

Test [1] concerns TGFβ/SMAD Signaling Pathway SBE reporter cell line. Nature of the test: TGFβ reporter assay, in vitro small molecule screening (luciferase). The test is classed as cell-based. Particulars: TGFβ stimulation, luminescence. The method, boiled down: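 SBE luciferase reporter cells (~0.5×10^6 cells/mL) preincubated with compound 5-6 h at 37 °C in 0.5% FBS MEM, then stimulated with TGFβ (12 ng/mL stock) for 18 h. Luminescence read after luciferase substrate; EC50 from curve fits.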
Background: Reporter assays use an easily measured gene product as a stand-in for the process of interest.

The IC50 is the concentration that gives 50% inhibition. High values mean weaker potency in that assay, low ones greater potency in that assay. For orientation: EC50 means the concentration giving half of the maximal effect. Lower therefore signals an effect from little substance.

T1 sequence (P37173 23-567): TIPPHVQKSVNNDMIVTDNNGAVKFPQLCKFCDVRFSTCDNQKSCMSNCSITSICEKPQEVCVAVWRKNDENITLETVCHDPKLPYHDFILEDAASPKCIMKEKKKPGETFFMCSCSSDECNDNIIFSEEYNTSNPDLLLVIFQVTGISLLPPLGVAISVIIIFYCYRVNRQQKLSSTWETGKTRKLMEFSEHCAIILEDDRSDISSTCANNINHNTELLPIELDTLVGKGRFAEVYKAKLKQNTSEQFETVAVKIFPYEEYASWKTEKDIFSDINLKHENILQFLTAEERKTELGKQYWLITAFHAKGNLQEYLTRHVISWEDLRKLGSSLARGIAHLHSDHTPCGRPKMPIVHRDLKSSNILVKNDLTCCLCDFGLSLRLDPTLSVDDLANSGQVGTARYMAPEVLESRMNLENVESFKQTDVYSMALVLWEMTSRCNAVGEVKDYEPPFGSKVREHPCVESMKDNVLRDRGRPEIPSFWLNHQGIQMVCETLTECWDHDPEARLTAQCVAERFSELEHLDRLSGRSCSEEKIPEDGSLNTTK

Turning to `Nc1ncc(-c2cccc(CNC(=O)OCc3ccccc3)c2)nc1C(=O)Nc1cnccc1N1CCOCC1` [Compound 176], the half-maximal inhibitory concentration (IC50) against TGFBR2 is below 50 nM. The EC50 in test [1] fell in the range of 100 to 1000 nM.

The compound `Nc1ncc(-c2ccc(OCC[C@@H](NC(=O)OCc3ccccc3)C(=O)O)cc2)nc1C(=O)Nc1cnccc1N1CCOCC1` [Compound 276] displayed an IC50 against TGFBR2 below 50 nM. For the same compound, the 50% effective concentration (EC50) in test [1] was above 1000 nM.

On to `COC(=O)[C@@H](N)CCOc1ccc(-c2cnc(N)c(C(=O)Nc3cnccc3N3CCOCC3)n2)cc1` [Compound 263], for which the concentration for half-maximal inhibition (IC50) against TGFBR2 is below 50 nM. For the same compound, the concentration giving a half-maximal response (EC50) in test [1] fell in the range of 100 to 1000 nM.

On to `NCCCc1ccc(-c2cnc(N)c(C(=O)Nc3cnccc3N3CCOCC3)n2)cc1` [Compound 2.1, 3-Amino-6-(4-(3-aminopropyl)phenyl)-N-(4-morpholinopyridin-3-yl)pyrazine-2-carboxamide], for which the IC50 against TGFBR2 was below 50 nM. In addition, in test [1], the EC50 was 50 to 100 nM.

`Nc1ncc(-c2ccc(N3CCNCC3)cc2)nc1C(=O)Nc1cnccc1N1CCOCC1` [Compound 70]: the IC50 against TGFBR2 was below 50 nM. In test [1], this compound registered an EC50 of 50 to 100 nM.

`Nc1ncc(-c2ccc(CCNC(=O)OCc3ccccc3)cc2)nc1C(=O)Nc1cnccc1-c1ccnc(Cl)c1` [Compound 18]: the 50% inhibitory concentration (IC50) against TGFBR2 was above 1000 nM. This compound registered a concentration giving a half-maximal response (EC50) in test [1] of 100 to 1000 nM.

`CC(N)COc1cccc(-c2cnc(N)c(C(=O)Nc3cnccc3N3CCOCC3)n2)c1` (stereo not shown) [Compound 194]: the IC50 against TGFBR2 is below 50 nM. Besides, in test [1], the concentration giving a half-maximal response (EC50) was in the range of 100 to 1000 nM.

On to `CN(CC#N)c1ccncc1NC(=O)c1nc(-c2ccc(CCNC(=O)OCc3ccccc3)cc2)cnc1N` [Compound 113], for which the IC50 on TGFBR2 is above 1000 nM. In test [1], this compound showed a concentration giving a half-maximal response (EC50) above 1000 nM.

`Nc1ncc(-c2ccccc2)nc1C(=O)Nc1cnccc1N1CCOCC1` [Compound 180] showed a 50% inhibitory concentration (IC50) at TGFBR2 of 50 to 100 nM. Also, the EC50 in test [1] was in the range of 100 to 1000 nM.

Compound `NCCc1ccc(-c2cnc(N)c(C(=O)Nc3cnccc3N3CCOCC3)n2)cn1` [Compound 125] had an IC50 at TGFBR2 of 100 to 1000 nM. This compound gave a 50% effective concentration (EC50) in test [1] above 1000 nM.

The compound `CC(C)(C)OC(=O)NC1CNc2ccc(-c3cnc(N)c(C(=O)Nc4cnccc4N4CCOCC4)n3)cc2C1` (stereo not shown) [Compound 238] gave an IC50 on TGFBR2 of 50 to 100 nM. This compound also gave a half-maximal effective concentration (EC50) in test [1] of 100 to 1000 nM.

In the case of `Nc1ncc(-c2ccc(CN3CCNCC3)cc2)nc1C(=O)Nc1cnccc1N1CCOCC1` [Compound 91], the IC50 at TGFBR2 is 50 to 100 nM. For the same compound, the concentration giving a half-maximal response (EC50) in test [1] was 50 to 100 nM.

Compound `CC(C)(C)OC(=O)N[C@@H]1CCN(c2ccc(-c3cnc(N)c(C(=O)Nc4cnccc4N4CCOCC4)n3)cc2)C1` [Compound 274] displayed an IC50 against TGFBR2 below 50 nM. Besides, the concentration giving a half-maximal response (EC50) in test [1] lay in the range of 100 to 1000 nM.

At TGFBR2, `Nc1ncc(-c2ccc(CCNC(=O)OCc3ccccc3)cc2)nc1C(=O)Nc1cnccc1-c1cc[nH]c(=O)c1` [Compound 39] returned an IC50 of 100 to 1000 nM. In test [1], the 50% effective concentration (EC50) is above 1000 nM.

On TGFBR2, `COc1cccc(OC)c1-c1cnc(N)c(C(=O)Nc2cnccc2N2CCOCC2)n1` [Compound 172] came in with an IC50 above 1000 nM. In test [1], the EC50 is above 1000 nM.

The compound `COC(=O)c1cc(-c2cnc(N)c(C(=O)Nc3cnccc3N3CCOCC3)n2)ccc1OCCCN1C(=O)c2ccccc2C1=O` [Compound 240] yielded a half-inhibitory concentration (IC50) against TGFBR2 of 50 to 100 nM. Also, the concentration giving a half-maximal response (EC50) in test [1] is above 1000 nM.

For `CC(C)[C@H](N)C(=O)N[C@@H](C)C(=O)NCc1ccc(-c2cnc(N)c(C(=O)Nc3cnccc3N3CCOCC3)n2)cc1` [Compound 108], the 50% inhibitory concentration (IC50) against TGFBR2 lay within 50 to 100 nM. The same compound came in with a 50% effective concentration (EC50) in test [1] of 50 to 100 nM.

With `COc1ccc(-c2ccncc2NC(=O)c2nc(-c3ccc(CCNC(=O)OCc4ccccc4)cc3)cnc2N)cc1` [Compound 14], the IC50 at TGFBR2 was above 1000 nM. The 50% effective concentration (EC50) in test [1] was above 1000 nM.

On TGFBR2, `Nc1ncc(-c2ccc(CCNC(=O)OCc3ccccc3)nc2)nc1C(=O)Nc1cnccc1N1CCOCC1` [Compound 124] gave an IC50 of 100 to 1000 nM. Further, the EC50 in test [1] lay within 100 to 1000 nM.

At TGFBR2, `COc1cc(-c2ccncc2NC(=O)c2nc(-c3ccc(CCNC(=O)OCc4ccccc4)cc3)cnc2N)ccn1` [Compound 21] yielded a 50% inhibitory concentration (IC50) above 1000 nM. In test [1], this compound showed an EC50 of 100 to 1000 nM.

As for `Nc1ncc(-c2ccc(CC(=O)NCCNC(=O)OCc3ccccc3)cc2)nc1C(=O)Nc1cnccc1N1CCOCC1` [Compound 94], on TGFBR2, the IC50 is below 50 nM. The EC50 in test [1] lay within 100 to 1000 nM.

With `COC(=O)[C@H](Cc1ccc(-c2cnc(N)c(C(=O)Nc3cnccc3N3CCOCC3)n2)cc1)NC(=O)OC(C)(C)C` [Compound 200], on TGFBR2, the IC50 is below 50 nM. Besides, in test [1], the EC50 is above 1000 nM.

For the compound `COc1cc(CCN)ccc1-c1cnc(N)c(C(=O)Nc2cnccc2N2CCOCC2)n1` [Compound 56], at TGFBR2, the IC50 is 50 to 100 nM. Further, the EC50 in test [1] was 50 to 100 nM.

On TGFBR2, `CC(C)(C)OC(=O)NCCNc1ccc(-c2cnc(N)c(C(=O)Nc3cnccc3N3CCOCC3)n2)cc1` [Compound 266] gave a half-maximal inhibitory concentration (IC50) below 50 nM. The EC50 in test [1] fell in the range of 100 to 1000 nM.

Compound `NCCc1ccc(-c2cnc(N)c(C(=O)Nc3cnccc3NCC(N)=O)n2)cc1` [Compound 104] yielded a 50% inhibitory concentration (IC50) on TGFBR2 above 1000 nM. Further, the EC50 in test [1] is above 1000 nM.

`CC(C)c1nccn1-c1ccncc1NC(=O)c1nc(-c2ccc(CCNC(=O)OCc3ccccc3)cc2)cnc1N` [Compound 143] gave an IC50 at TGFBR2 below 50 nM. Also, the concentration giving a half-maximal response (EC50) in test [1] was above 1000 nM.

`NCCc1cc(F)c(-c2cnc(N)c(C(=O)Nc3cnccc3N3CCOCC3)n2)c(F)c1` [Compound 57] came in with an IC50 on TGFBR2 of 100 to 1000 nM. In addition, the EC50 in test [1] fell in the range of 100 to 1000 nM.

On TGFBR2, `NCCc1ccc(-c2cnc(N)c(C(=O)Nc3c(N4CCOCC4)ccnc3N)n2)cc1` [Compound 131] came in with a half-inhibitory concentration (IC50) above 1000 nM. In test [1], this compound yielded a concentration giving a half-maximal response (EC50) above 1000 nM.

As to `Nc1ncc(-c2ccc(N3CCOCC3)cc2)nc1C(=O)Nc1cnccc1N1CCOCC1` [Compound 258], the concentration for half-maximal inhibition (IC50) against TGFBR2 is below 50 nM. The same compound showed a concentration giving a half-maximal response (EC50) in test [1] below 50 nM.

As for `COCCN(C)c1ccncc1NC(=O)c1nc(-c2ccc(CCNC(=O)OCc3ccccc3)cc2)cnc1N` [Compound 101], on TGFBR2, the IC50 is 50 to 100 nM. Besides, the EC50 in test [1] lay in the range of 100 to 1000 nM.

On to `Nc1nc(-c2ccc(CCC(=O)N3CCN(C(=O)OCc4ccccc4)CC3)cc2)cnc1C(=O)Nc1cnccc1N1CCOCC1` [Compound 86], for which, on TGFBR2, the IC50 is below 50 nM. This compound showed an EC50 in test [1] of 100 to 1000 nM.

Regarding `CNc1ccc(-c2cnc(N)c(C(=O)Nc3cnccc3N3CCOCC3)n2)cc1` [Compound 260], the half-maximal inhibitory concentration (IC50) at TGFBR2 is below 50 nM. Further, in test [1], the EC50 is below 50 nM.

As to `CNc1ncc(-c2ccc(OC(C)CN)cc2)nc1C(=O)Nc1cnccc1N1CCOCC1` (stereo not shown) [Compound 254], the half-maximal inhibitory concentration (IC50) on TGFBR2 was above 1000 nM. For the same compound, the EC50 in test [1] is above 1000 nM.

As to `Nc1ncc(-c2ccc(CCNC(=O)OCc3ccccc3)cc2)nc1C(=O)Nc1cncc(-c2ccccc2[N+](=O)[O-])c1` [Compound 144], the half-maximal inhibitory concentration (IC50) against TGFBR2 is below 50 nM. Also, the 50% effective concentration (EC50) in test [1] is above 1000 nM.

Regarding `Nc1ncc(-c2ccc(CCNC(=O)OCc3ccccc3)cc2)nc1C(=O)Nc1cnccc1-c1ccncn1` [Compound 49], at TGFBR2, the 50% inhibitory concentration (IC50) was above 1000 nM. Moreover, the EC50 in test [1] was above 1000 nM.

For `Nc1ncc(-c2ccc(CCNC(=O)OCc3ccccc3)cc2)nc1C(=O)Nc1cnccc1-c1cccnc1` [Compound 128], the IC50 on TGFBR2 is below 50 nM. The EC50 in test [1] was in the range of 100 to 1000 nM.

In the case of `Nc1ncc(-c2ccc3c(c2)OCCN3)nc1C(=O)Nc1cnccc1N1CCOCC1` [Compound 217], on TGFBR2, the half-maximal inhibitory concentration (IC50) is below 50 nM. In test [1], this compound returned a half-maximal effective concentration (EC50) of 100 to 1000 nM.

At TGFBR2, `NCCc1ccc(-c2cnc(N)c(C(=O)Nc3cnc4[nH]ccc4c3N3CCOCC3)n2)cc1` [Compound 134] displayed a 50% inhibitory concentration (IC50) below 50 nM. This compound registered a concentration for a half-maximal effect (EC50) in test [1] of 100 to 1000 nM.
